Source: PubChem BioAssay AID1963979 (Molecular Pharmacology Branch, DTP, NCI, 2024)

Test system: 361931-004-R-J1-PDC multicell spheroid viability
Assay: Anticancer human tumor 361931-004-R-J1-PDC patient-derived colon adenocarcinoma cell line growth inhibition [PI3K]
Conditions: for IC50: curve of first compound; for viability, T/C: stronger effect = lower value
Source text: Combinatorial screen of targeted agents with the PI3K inhibitors inavolisib, alpelisib, duvelisib, and copanlisib in multi-cell type tumor spheroids
A high-throughput screen of multi-cell type tumor spheroids was designed to identify active combinations of targeted small molecules and PI3K pathway inhibitors. Complex spheroids include a stromal component modeled by human endothelial cells (HUVEC) and fibroblasts modeled by human mesenchymal stem cells (MSCs). The concentration ranges selected for each drug and investigational agent were based upon clinically achievable concentrations if the clinical Cmax of the agent was known.
Compounds. The drugs and investigational agents: inavolisib (NSC800729), alpelisib (NSC765974), duvelisib (NSC772469), copanlisib (NSC816437), ipatasertib (NSC767898), afuresertib (NSC778305), talazoparib (NSC767125), sapanisertib (NSC764658), selumetinib (NSC741078), tovorafenib (DAY101, NSC766906), vemurafenib (NSC761431), ravoxertinib (NSC781343), sotorasib (NSC818433), MRTX1133 (NSC 836407), abemaciclib (NSC 768073), palbociclib (NSC758247), venetoclax (NSC 766270), SY5609 (NSC837396), enzalutamide (NSC755605), and darolutamide (NSC825331), were obtained from the National Cancer Institute (NCI) Developmental Therapeutics Program Chemical Repository. The FDA-approved anticancer drug set is available from the NCI Developmental Therapeutics Program. […] The stock solutions were prepared in dimethyl sulfoxide (DMSO, Sigma-Aldrich, St. Louis, MO, cat. D2650) at 800-fold the tested concentration and stored at -70 degrees C prior to their use. All drugs and investigational agents were tested over a range starting from a high concentration at or near the clinical Cmax and decreasing in half-log increments. If the clinical Cmax for an agent had not been determined, the highest concentration tested was 10 microM.
Cell Culture. All cells were maintained in an incubator at 37 degrees C and 5% CO2 with 95% humidity. The PDC lines were cultured according to standard operating procedures established by the NCI PDMR (https://pdmr.cancer.gov/sops/default.htm). All PDCs were thawed and cultured in Matrigel-coated flasks prepared with a working solution of 1X Ham's F-12 nutrient mix, without supplementation (Invitrogen, Waltham, MA, cat. 11765054), 100 U/mL penicillin-streptomycin (Invitrogen, cat. 15140122), and 2.5% Matrigel (Corning Inc., Corning, NY, cat. 354248) for the first three passages. The 354836-022-R-J1-PDC, 475296-252-R-J1-PDC, and 997726-040-R-J2-PDC lines were cultured in 6A media, which includes advanced DMEM/F-12 (Thermo Fisher Scientific, cat. 12634028), 10 mM HEPES (Thermo Fisher Scientific, cat. 15630080), 1X GlutaMAX supplement (Thermo Fisher Scientific, cat. 35050061), 0.1 mg/mL primocin (InvivoGen, San Diego, CA, cat. ant-pm-2), 10% defined fetal bovine serum, heat inactivated (HyClone Laboratories Inc., Logan, UT, cat. SH30070.03HI), 50% L-WRN conditioned media (ATCC, cat. CRL-3276), 1.25 mM N-Acetyl-L-cysteine (Sigma-Aldrich, cat. A9165), 10 mM nicotinamide (Sigma-Aldrich, cat. N0636), 1X B-27 supplement (Thermo Fisher Scientific, cat. 17504044), 1X N-2 supplement (Thermo Fisher Scientific, cat. 17502048), and 10 microM Y-27632 dihydrochloride (Tocris Bioscience, Bristol, United Kingdom, cat. 1254). The 624824-186-R-J2-PDC line was cultured in 6C/Colon 1B media, which includes all 6A media components plus 50 ng/mL human EGF recombinant protein (Thermo Fisher Scientific, cat. PHG0311). […]
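Note: spheroids exposed to agents for seven days before readout.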

Compound: Cn1cnc2c(F)c(Nc3ccc(Br)cc3Cl)c(C(=O)NOCCO)cc21 + Cc1nc(NC(=O)N2CCCC2C(N)=O)sc1-c1ccnc(C(C)(C)C(F)(F)F)c1
- IC50 (second compound 0.0316 µM): > 3000 nM
- IC50 (second compound 0.1 µM): 2120 nM
- IC50 (second compound 0.316 µM): 1170 nM
- IC50 (second compound 1 µM): 741 nM
- IC50 (second compound 3.16 µM): 204 nM
- IC50 (second compound 10 µM): 30.9 nM
- viability, T/C (second compound 0.0316 µM, first compound 0.00949 µM): 96.2%
- viability, T/C (second compound 0.0316 µM, first compound 0.03 µM): 95.8%
- viability, T/C (second compound 0.0316 µM, first compound 0.0949 µM): 82.2%
- viability, T/C (second compound 0.0316 µM, first compound 0.3 µM): 78.8%
- viability, T/C (second compound 0.0316 µM, first compound 0.949 µM): 75.8%
- viability, T/C (second compound 0.0316 µM, first compound 3 µM): 48.3%
- viability, T/C (second compound 0.1 µM, first compound 0.00949 µM): 107%
- viability, T/C (second compound 0.1 µM, first compound 0.03 µM): 106%
- viability, T/C (second compound 0.1 µM, first compound 0.0949 µM): 83.7%
- viability, T/C (second compound 0.1 µM, first compound 0.3 µM): 84.5%
- viability, T/C (second compound 0.1 µM, first compound 0.949 µM): 70.4%
- viability, T/C (second compound 0.1 µM, first compound 3 µM): 41%
- viability, T/C (second compound 0.316 µM, first compound 0.00949 µM): 103%
- viability, T/C (second compound 0.316 µM, first compound 0.03 µM): 89.5%
- viability, T/C (second compound 0.316 µM, first compound 0.0949 µM): 79.2%
- viability, T/C (second compound 0.316 µM, first compound 0.3 µM): 74%
- viability, T/C (second compound 0.316 µM, first compound 0.949 µM): 57.1%
- viability, T/C (second compound 0.316 µM, first compound 3 µM): 29.7%
- viability, T/C (second compound 1 µM, first compound 0.00949 µM): 95.9%
- viability, T/C (second compound 1 µM, first compound 0.03 µM): 92.7%
- viability, T/C (second compound 1 µM, first compound 0.0949 µM): 75.6%
- viability, T/C (second compound 1 µM, first compound 0.3 µM): 68%
- viability, T/C (second compound 1 µM, first compound 0.949 µM): 44.4%
- viability, T/C (second compound 1 µM, first compound 3 µM): 27.5%
- viability, T/C (second compound 3.16 µM, first compound 0.00949 µM): 82.7%
- viability, T/C (second compound 3.16 µM, first compound 0.03 µM): 77.6%
- viability, T/C (second compound 3.16 µM, first compound 0.0949 µM): 61.9%
- viability, T/C (second compound 3.16 µM, first compound 0.3 µM): 40%
- viability, T/C (second compound 3.16 µM, first compound 0.949 µM): 29.3%
- viability, T/C (second compound 3.16 µM, first compound 3 µM): 6.45%
- viability, T/C (second compound 10 µM, first compound 0.00949 µM): 59%
- viability, T/C (second compound 10 µM, first compound 0.03 µM): 48.4%
- viability, T/C (second compound 10 µM, first compound 0.0949 µM): 35%
- viability, T/C (second compound 10 µM, first compound 0.3 µM): 12.5%
- viability, T/C (second compound 10 µM, first compound 0.949 µM): 4.2%
- viability, T/C (second compound 10 µM, first compound 3 µM): 1.47%

Compound: CNC(=O)c1ccc(N2C(=S)N(c3ccc(C#N)c(C(F)(F)F)c3)C(=O)C2(C)C)cc1F + COc1c(OCCCN2CCOCC2)ccc2c3n(c(=NC(=O)c4cnc(N)nc4)nc12)CCN3
- IC50 (second compound 0.00316 µM): > 10000 nM
- IC50 (second compound 0.01 µM): > 10000 nM
- IC50 (second compound 0.0316 µM): > 10000 nM
- IC50 (second compound 0.1 µM): > 10000 nM
- IC50 (second compound 0.316 µM): 3980 nM
- IC50 (second compound 1 µM): < 31.6 nM
- viability, T/C (second compound 0.00316 µM, first compound 0.0316 µM): 103%
- viability, T/C (second compound 0.00316 µM, first compound 0.1 µM): 102%
- viability, T/C (second compound 0.00316 µM, first compound 0.316 µM): 97.6%
- viability, T/C (second compound 0.00316 µM, first compound 1 µM): 103%
- viability, T/C (second compound 0.00316 µM, first compound 3.16 µM): 105%
- viability, T/C (second compound 0.00316 µM, first compound 10 µM): 88.5%
- viability, T/C (second compound 0.01 µM, first compound 0.0316 µM): 95.5%
- viability, T/C (second compound 0.01 µM, first compound 0.1 µM): 101%
- viability, T/C (second compound 0.01 µM, first compound 0.316 µM): 98.8%
- viability, T/C (second compound 0.01 µM, first compound 1 µM): 98.2%
- viability, T/C (second compound 0.01 µM, first compound 3.16 µM): 98.7%
- viability, T/C (second compound 0.01 µM, first compound 10 µM): 86.2%
- viability, T/C (second compound 0.0316 µM, first compound 0.0316 µM): 83.6%
- viability, T/C (second compound 0.0316 µM, first compound 0.1 µM): 92.3%
- viability, T/C (second compound 0.0316 µM, first compound 0.316 µM): 91.7%
- viability, T/C (second compound 0.0316 µM, first compound 1 µM): 90%
- viability, T/C (second compound 0.0316 µM, first compound 3.16 µM): 95.7%
- viability, T/C (second compound 0.0316 µM, first compound 10 µM): 88.4%
- viability, T/C (second compound 0.1 µM, first compound 0.0316 µM): 81.1%
- viability, T/C (second compound 0.1 µM, first compound 0.1 µM): 82.5%
- viability, T/C (second compound 0.1 µM, first compound 0.316 µM): 76.1%
- viability, T/C (second compound 0.1 µM, first compound 1 µM): 81.5%
- viability, T/C (second compound 0.1 µM, first compound 3.16 µM): 86.1%
- viability, T/C (second compound 0.1 µM, first compound 10 µM): 65.8%
- viability, T/C (second compound 0.316 µM, first compound 0.0316 µM): 56.2%
- viability, T/C (second compound 0.316 µM, first compound 0.1 µM): 53%
- viability, T/C (second compound 0.316 µM, first compound 0.316 µM): 54.1%
- viability, T/C (second compound 0.316 µM, first compound 1 µM): 57.5%
- viability, T/C (second compound 0.316 µM, first compound 3.16 µM): 52.8%
- viability, T/C (second compound 0.316 µM, first compound 10 µM): 36.7%
- viability, T/C (second compound 1 µM, first compound 0.0316 µM): 28.7%
- viability, T/C (second compound 1 µM, first compound 0.1 µM): 22.2%
- viability, T/C (second compound 1 µM, first compound 0.316 µM): 22.7%
- viability, T/C (second compound 1 µM, first compound 1 µM): 26.8%
- viability, T/C (second compound 1 µM, first compound 3.16 µM): 26.5%
- viability, T/C (second compound 1 µM, first compound 10 µM): 17.1%
